Experimental data reported in ChEMBL document CHEMBL5212743, “Selectivity Literature for EUbOPEN Chemogenomics Library wave 3” (2023).

Key:
[1] = molecular target: Bromodomain-containing protein 1 (Homo sapiens) (UniProt O95696); test: Selectivity interaction (Bromodomain panel (DSF assay)) EUB0000224e BRD1
[2] = molecular target: Chromatin remodeling regulator CECR2 (Homo sapiens, UniProt Q9BXF3); test: Selectivity interaction (Bromodomain panel (DSF assay)) EUB0000224e CECR2
[3] = molecular target: Tyrosine-protein kinase ABL2 (Homo sapiens) (UniProt P42684); test: Selectivity interaction (KinomeScan (DiscoverX)) EUB0000686a ABL2; details: at 1 µM
[4] = molecular target: Protein arginine N-methyltransferase 5 (Homo sapiens, UniProt O14744); test: Selectivity interaction (Protein methyltransferase panel (activity assay)) EUB0000211b PRMT5
[5] = molecular target: Histone-lysine N-methyltransferase SETD7 (Homo sapiens) (UniProt Q8WTS6); test: Selectivity interaction (Protein methyltransferase panel (activity assay)) EUB0000211b SETD7
[6] = molecular target: DNA (cytosine-5)-methyltransferase 1 (Homo sapiens, UniProt P26358); test: Selectivity interaction (Protein methyltransferase panel (activity assay)) EUB0000211b DNMT1
[7] = molecular target: Protein arginine N-methyltransferase 9 (Homo sapiens) (UniProt Q6P2P2); test: Selectivity interaction (Protein methyltransferase panel (activity assay)) EUB0000211b PRMT9
[8] = molecular target: N-lysine methyltransferase SMYD2 (Homo sapiens, UniProt Q9NRG4); test: Selectivity interaction (Protein methyltransferase panel (activity assay)) EUB0000211b SMYD2
[9] = molecular target: Histone-lysine N-methyltransferase, H3 lysine-79 specific (Homo sapiens, UniProt Q8TEK3); test: Selectivity interaction (Protein methyltransferase panel (activity assay)) EUB0000211b DOT1L
[10] = molecular target: Histone-lysine N-methyltransferase EHMT1 (Homo sapiens) (UniProt Q9H9B1); test: Selectivity interaction (Protein methyltransferase panel (activity assay)) EUB0000211b EHMT1
[11] = molecular target: Histone-lysine N-methyltransferase EHMT2 (Homo sapiens) (UniProt Q96KQ7); test: Selectivity interaction (Protein methyltransferase panel (activity assay)) EUB0000211b EHMT2
[12] = molecular target: Histone-lysine N-methyltransferase EZH1 (Homo sapiens) (UniProt Q92800); test: Selectivity interaction (Protein methyltransferase panel (activity assay)) EUB0000211b EZH1
[13] = molecular target: Histone-lysine N-methyltransferase EZH2 (Homo sapiens, UniProt Q15910); test: Selectivity interaction (Protein methyltransferase panel (activity assay)) EUB0000211b EZH2
[14] = molecular target: Histone-lysine N-methyltransferase, H3 lysine-36 specific (Homo sapiens) (UniProt Q96L73); test: Selectivity interaction (Protein methyltransferase panel (activity assay)) EUB0000211b NSD1
[15] = molecular target: Histone-lysine N-methyltransferase NSD2 (Homo sapiens) (UniProt O96028); test: Selectivity interaction (Protein methyltransferase panel (activity assay)) EUB0000211b NSD2
[16] = molecular target: Histone-lysine N-methyltransferase NSD3 (Homo sapiens) (UniProt Q9BZ95); test: Selectivity interaction (Protein methyltransferase panel (activity assay)) EUB0000211b NSD3
[17] = molecular target: Protein arginine N-methyltransferase 1 (Homo sapiens, UniProt Q99873); test: Selectivity interaction (Protein methyltransferase panel (activity assay)) EUB0000211b PRMT1
[18] = molecular target: Protein arginine N-methyltransferase 3 (Homo sapiens, UniProt O60678); test: Selectivity interaction (Protein methyltransferase panel (activity assay)) EUB0000211b PRMT3
[19] = molecular target: Protein arginine N-methyltransferase 6 (Homo sapiens, UniProt Q96LA8); test: Selectivity interaction (Protein methyltransferase panel (activity assay)) EUB0000211b PRMT6
[20] = molecular target: Protein arginine N-methyltransferase 8 (Homo sapiens, UniProt Q9NR22); test: Selectivity interaction (Protein methyltransferase panel (activity assay)) EUB0000211b PRMT8
[21] = molecular target: N-lysine methyltransferase KMT5A (Homo sapiens) (UniProt Q9NQR1); test: Selectivity interaction (Protein methyltransferase panel (activity assay)) EUB0000211b SETD8
[22] = molecular target: Histone-lysine N-methyltransferase SETDB1 (Homo sapiens, UniProt Q15047); test: Selectivity interaction (Protein methyltransferase panel (activity assay)) EUB0000211b SETDB1
[23] = molecular target: Histone-lysine N-methyltransferase SUV39H2 (Homo sapiens, UniProt Q9H5I1); test: Selectivity interaction (Protein methyltransferase panel (activity assay)) EUB0000211b SUV39H2
[24] = molecular target: Histone-lysine N-methyltransferase KMT5B (Homo sapiens, UniProt Q4FZB7); test: Selectivity interaction (Protein methyltransferase panel (activity assay)) EUB0000211b SUV420H1
[25] = molecular target: Histone-lysine N-methyltransferase KMT5C (Homo sapiens, UniProt Q86Y97); test: Selectivity interaction (Protein methyltransferase panel (activity assay)) EUB0000211b SUV420H2
[26] = molecular target: Tudor domain-containing protein 3 (Homo sapiens) (UniProt Q9H7E2); test: Selectivity interaction (Methyl-Lysine/Arginine panel (DSF assay)) EUB0000211b TDRD3; details: OICR-# does not inhibit the C/EBPa p30-Wdr5 interaction (Western Blot), PMID: #;, Selectivity Remarks In vitro, Selectivity Source Knowledge https://www.thesgc.org/chemical-probes/OICR-9429, S

Histone-lysine N-methyltransferase EHMT1 (Homo sapiens), sequence (Q9H9B1 whole entry): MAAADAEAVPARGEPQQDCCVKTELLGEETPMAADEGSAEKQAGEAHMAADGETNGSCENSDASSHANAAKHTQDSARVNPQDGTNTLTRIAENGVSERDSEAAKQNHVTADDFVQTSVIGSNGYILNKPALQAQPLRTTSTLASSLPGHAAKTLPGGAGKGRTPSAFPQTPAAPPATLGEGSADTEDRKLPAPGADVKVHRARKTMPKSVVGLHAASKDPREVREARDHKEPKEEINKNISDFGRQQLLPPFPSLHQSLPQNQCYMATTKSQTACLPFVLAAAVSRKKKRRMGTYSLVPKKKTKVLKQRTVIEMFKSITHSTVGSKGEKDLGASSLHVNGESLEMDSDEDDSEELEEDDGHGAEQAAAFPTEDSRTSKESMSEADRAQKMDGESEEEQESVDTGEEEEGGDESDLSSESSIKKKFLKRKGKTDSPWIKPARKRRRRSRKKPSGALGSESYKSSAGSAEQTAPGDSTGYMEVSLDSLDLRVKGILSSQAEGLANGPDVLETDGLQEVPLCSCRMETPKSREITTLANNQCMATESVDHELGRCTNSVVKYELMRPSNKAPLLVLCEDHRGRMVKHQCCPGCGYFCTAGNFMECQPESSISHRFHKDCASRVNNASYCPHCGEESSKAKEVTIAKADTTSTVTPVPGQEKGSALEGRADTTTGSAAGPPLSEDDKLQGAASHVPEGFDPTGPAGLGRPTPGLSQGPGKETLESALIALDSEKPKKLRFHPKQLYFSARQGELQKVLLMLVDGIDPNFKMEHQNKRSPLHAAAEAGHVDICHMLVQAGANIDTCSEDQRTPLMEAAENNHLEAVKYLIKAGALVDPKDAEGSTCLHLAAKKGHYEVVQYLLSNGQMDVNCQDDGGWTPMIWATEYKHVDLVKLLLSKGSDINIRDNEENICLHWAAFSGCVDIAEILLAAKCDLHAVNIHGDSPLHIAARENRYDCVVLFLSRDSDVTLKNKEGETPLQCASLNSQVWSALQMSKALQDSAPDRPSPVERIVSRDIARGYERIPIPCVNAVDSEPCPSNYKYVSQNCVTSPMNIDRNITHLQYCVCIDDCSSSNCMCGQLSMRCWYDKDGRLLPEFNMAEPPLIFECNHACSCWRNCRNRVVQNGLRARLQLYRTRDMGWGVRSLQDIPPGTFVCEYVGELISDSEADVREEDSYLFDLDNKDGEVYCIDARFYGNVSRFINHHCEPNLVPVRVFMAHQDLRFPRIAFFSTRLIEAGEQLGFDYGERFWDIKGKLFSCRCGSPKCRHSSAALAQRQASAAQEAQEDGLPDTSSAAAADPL
Histone-lysine N-methyltransferase, H3 lysine-79 specific, sequence (Q8TEK3 whole entry, looked up): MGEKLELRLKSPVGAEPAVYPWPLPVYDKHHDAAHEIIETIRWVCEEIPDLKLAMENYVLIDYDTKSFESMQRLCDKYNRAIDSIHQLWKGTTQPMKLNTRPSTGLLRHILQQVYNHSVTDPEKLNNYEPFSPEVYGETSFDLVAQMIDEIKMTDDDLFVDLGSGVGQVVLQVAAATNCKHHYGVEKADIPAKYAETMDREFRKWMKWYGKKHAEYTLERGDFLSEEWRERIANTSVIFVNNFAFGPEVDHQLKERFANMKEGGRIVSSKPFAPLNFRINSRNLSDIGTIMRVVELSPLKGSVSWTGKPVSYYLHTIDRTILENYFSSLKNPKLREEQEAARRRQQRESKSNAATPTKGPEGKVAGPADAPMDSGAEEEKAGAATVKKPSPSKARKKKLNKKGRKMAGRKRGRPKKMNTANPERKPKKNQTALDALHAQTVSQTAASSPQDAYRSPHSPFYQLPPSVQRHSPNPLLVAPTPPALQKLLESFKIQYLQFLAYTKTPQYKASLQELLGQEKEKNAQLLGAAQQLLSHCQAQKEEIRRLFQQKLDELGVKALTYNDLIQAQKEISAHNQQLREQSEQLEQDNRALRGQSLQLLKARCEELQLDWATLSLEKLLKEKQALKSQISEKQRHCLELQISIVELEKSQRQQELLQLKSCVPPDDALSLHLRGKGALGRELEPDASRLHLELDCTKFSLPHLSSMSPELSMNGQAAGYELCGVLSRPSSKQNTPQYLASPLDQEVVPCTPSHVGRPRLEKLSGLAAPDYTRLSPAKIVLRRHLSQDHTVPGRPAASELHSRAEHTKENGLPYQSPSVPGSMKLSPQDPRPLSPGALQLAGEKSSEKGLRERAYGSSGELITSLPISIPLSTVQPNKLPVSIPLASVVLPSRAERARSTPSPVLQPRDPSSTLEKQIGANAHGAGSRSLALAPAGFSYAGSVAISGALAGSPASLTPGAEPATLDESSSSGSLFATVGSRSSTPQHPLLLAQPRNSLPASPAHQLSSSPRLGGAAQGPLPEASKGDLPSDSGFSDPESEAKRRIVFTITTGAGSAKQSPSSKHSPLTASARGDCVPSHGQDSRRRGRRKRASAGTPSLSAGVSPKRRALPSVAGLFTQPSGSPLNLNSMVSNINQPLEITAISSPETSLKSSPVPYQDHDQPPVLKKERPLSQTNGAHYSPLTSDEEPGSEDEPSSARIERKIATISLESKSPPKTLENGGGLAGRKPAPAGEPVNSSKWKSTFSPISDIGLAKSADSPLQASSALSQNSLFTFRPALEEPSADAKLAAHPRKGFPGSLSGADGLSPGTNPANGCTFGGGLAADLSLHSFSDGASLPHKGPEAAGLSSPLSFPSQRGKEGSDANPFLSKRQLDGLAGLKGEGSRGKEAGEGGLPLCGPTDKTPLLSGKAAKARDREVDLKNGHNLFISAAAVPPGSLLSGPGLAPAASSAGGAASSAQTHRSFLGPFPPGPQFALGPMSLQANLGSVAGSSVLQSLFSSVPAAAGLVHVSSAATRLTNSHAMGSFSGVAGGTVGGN
Histone-lysine N-methyltransferase KMT5B, sequence (Q4FZB7 whole entry, looked up): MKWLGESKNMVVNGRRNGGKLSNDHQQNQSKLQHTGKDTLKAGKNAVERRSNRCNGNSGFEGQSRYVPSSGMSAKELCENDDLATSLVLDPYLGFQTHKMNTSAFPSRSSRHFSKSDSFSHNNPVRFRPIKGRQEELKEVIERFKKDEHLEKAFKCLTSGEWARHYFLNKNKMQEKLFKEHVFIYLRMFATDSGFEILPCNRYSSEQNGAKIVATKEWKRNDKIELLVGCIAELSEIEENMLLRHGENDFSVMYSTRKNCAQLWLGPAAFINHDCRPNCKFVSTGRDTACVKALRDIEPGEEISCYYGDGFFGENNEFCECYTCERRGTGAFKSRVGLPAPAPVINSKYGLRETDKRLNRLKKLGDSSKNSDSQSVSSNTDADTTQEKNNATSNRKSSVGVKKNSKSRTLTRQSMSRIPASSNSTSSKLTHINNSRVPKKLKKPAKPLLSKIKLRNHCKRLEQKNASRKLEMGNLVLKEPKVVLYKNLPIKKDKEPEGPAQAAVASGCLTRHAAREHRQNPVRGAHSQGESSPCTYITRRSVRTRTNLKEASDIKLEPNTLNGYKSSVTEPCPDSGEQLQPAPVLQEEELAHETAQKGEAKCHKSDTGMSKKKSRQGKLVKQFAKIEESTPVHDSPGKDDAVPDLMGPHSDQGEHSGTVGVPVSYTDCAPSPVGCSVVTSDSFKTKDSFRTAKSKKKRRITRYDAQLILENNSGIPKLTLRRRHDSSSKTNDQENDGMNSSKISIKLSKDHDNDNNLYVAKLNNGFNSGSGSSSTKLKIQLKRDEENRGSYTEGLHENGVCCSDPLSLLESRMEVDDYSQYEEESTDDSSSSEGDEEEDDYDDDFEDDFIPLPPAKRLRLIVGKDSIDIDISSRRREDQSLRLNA
Histone-lysine N-methyltransferase NSD2 (Homo sapiens), sequence (O96028 whole entry): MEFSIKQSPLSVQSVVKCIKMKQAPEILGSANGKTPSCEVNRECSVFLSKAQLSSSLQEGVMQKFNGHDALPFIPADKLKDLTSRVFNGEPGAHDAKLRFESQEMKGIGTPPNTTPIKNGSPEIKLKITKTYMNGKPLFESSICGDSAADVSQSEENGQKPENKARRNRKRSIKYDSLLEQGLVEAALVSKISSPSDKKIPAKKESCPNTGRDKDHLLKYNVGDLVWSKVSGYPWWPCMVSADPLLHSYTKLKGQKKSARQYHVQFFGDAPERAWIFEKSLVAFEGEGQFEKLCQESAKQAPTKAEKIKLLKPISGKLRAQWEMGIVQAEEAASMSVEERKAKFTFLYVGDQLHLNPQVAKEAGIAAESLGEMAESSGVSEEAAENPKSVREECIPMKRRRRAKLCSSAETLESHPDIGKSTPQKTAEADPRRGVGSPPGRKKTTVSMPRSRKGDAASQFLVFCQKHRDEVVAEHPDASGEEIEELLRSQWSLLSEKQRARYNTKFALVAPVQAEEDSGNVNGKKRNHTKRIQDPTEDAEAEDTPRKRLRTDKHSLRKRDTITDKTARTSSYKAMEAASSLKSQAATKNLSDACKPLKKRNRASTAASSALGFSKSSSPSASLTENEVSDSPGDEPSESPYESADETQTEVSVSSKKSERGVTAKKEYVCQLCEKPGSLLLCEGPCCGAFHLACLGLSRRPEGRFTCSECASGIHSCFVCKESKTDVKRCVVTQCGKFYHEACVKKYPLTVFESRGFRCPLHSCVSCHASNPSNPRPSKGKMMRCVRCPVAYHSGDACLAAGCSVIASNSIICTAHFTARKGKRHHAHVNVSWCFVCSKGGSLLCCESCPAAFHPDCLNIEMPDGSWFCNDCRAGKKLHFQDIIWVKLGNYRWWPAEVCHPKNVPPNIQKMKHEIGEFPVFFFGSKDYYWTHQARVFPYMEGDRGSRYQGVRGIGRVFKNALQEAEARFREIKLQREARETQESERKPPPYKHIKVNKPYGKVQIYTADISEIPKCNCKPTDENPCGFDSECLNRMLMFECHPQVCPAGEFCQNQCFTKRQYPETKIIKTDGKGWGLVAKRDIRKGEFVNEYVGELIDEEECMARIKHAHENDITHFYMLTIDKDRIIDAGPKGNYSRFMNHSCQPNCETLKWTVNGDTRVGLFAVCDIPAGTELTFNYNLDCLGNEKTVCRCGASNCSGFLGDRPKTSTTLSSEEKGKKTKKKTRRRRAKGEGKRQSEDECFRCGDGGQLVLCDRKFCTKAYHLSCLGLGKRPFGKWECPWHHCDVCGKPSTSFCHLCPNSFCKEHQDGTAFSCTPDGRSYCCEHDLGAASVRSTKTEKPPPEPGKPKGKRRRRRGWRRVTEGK

Structure (SMILES): COc1ccccc1C(=O)Nc1cc2c(cc1N1CCCC1)n(C)c(=O)n2C
- dTm [1]: 2 K
- dTm [2]: 2 K

Structure (SMILES): CN(C)C(=O)c1cc2cnc(Nc3ccc(N4CCNCC4)cn3)nc2n1C1CCCC1
- % of control [3]: 5.8%

Structure (SMILES): CN1CCN(c2ccc(-c3cccc(CN4CCOCC4)c3)cc2NC(=O)c2c[nH]c(=O)cc2C(F)(F)F)CC1
- % activity remaining [4]: > 90%
- % activity remaining [5]: > 90%
- % activity remaining [6]: > 90%
- % activity remaining [7]: > 90%
- % activity remaining [8]: > 90%
- % activity remaining [9]: > 90%
- % activity remaining [10]: > 90%
- % activity remaining [11]: > 90%
- % activity remaining [12]: > 90%
- % activity remaining [13]: > 90%
- % activity remaining [14]: > 90%
- % activity remaining [15]: > 80%
- % activity remaining [16]: > 90%
- % activity remaining [17]: > 90%
- % activity remaining [18]: > 90%
- % activity remaining [19]: > 90%
- % activity remaining [20]: > 90%
- % activity remaining [21]: > 90%
- % activity remaining [22]: > 90%
- % activity remaining [23]: > 90%
- % activity remaining [24]: > 90%
- % activity remaining [25]: > 90%
- dTm [26]: 1.8 K
